Measured values published in patent publication US5196094A, “Separation of 1,1,1-trichloroethane from the lower alcohols by extractive distillation” (priority 1991, dated 1993).
Structures can show the parent of a compound that is named as a salt.

How the values were obtained:
Format in all cases: physicochemical
[1] = Vapor-liquid equilibrium still, separation of 1,1,1-trichloroethane from 2-butanol
[2] = Vapor-liquid equilibrium still, separation of 1,1,1-trichloroethane from methanol
[3] = Vapor-liquid equilibrium still, separation of 1,1,1-trichloroethane from t-butanol
[4] = Vapor-liquid equilibrium still, separation of 1,1,1-trichloroethane from n-propanol
[5] = Vapor-liquid equilibrium still, separation of 1,1,1-trichloroethane from ethanol
[6] = Vapor-liquid equilibrium still, separation of 1,1,1-trichloroethane from isopropanol
[7] = 1,1,1-trichloroethane from 2-butanol, vapor-liquid equilibrium still
[8] = 1,1,1-trichloroethane from methanol, vapor-liquid equilibrium still
[9] = 1,1,1-trichloroethane from t-butanol
[10] = 1,1,1-trichloroethane from n-propanol, vapor-liquid equilibrium still
[11] = * Brings out Ethanol as Overhead
[12] = 1,1,1-trichloroethane from ethanol

CC(C)CC(O)CC(C)C [Diisobutyl carbinol]
Relative Volatility [1]: 2.2

CCCCCCC(C)O (centres unmarked) [2-Octanol]
Relative Volatility [1, 7]: 2.6
Relative Volatility [2, 8]: 2.8

CCCCCCOCCOCCO [Diethylene glycol hexyl ether]
Relative Volatility [3, 9]: 1.5
Relative Volatility [1, 7]: 2.3
Relative Volatility [4, 10]: 2.0
Relative Volatility [2, 8]: 4.2

CC(=O)O[C@@H]1C[C@H]2CC[C@]1(C)C2(C)C (racemic) [Isobornyl acetate]
Relative Volatility [5, 11]: 1.6
Relative Volatility [1]: 1.7
Relative Volatility [2]: 2.5

CCCCCC(C)=O [2-Heptanone]
Relative Volatility [5, 12]: 1.3
Relative Volatility [1]: 1.4
Relative Volatility [2, 8]: 3.2

CCOC(=O)CC(C)=O [Ethyl acetoacetate]
Relative Volatility [5, 12]: 1.7
Relative Volatility [1]: 1.8
Relative Volatility [2, 8]: 2.8

CC(=O)OCC(C)C [Isobutyl acetate]
Relative Volatility [6]: 1.35

CCCCC(=O)CC [3-Heptanone]
Relative Volatility [4]: 1.25

CCC(C)COC(C)=O (centres unmarked) [2-Methyl butyl acetate]
Relative Volatility [6]: 1.35

CC(O)COc1ccccc1 (centres unmarked) [Propylene glycol phenyl ether]
Relative Volatility [1, 7]: 2.4
Relative Volatility [4, 10]: 3.4
Relative Volatility [2]: 3.1
Relative Volatility [6]: 1.6

COCC(C)O (centres unmarked) [1-Methoxy-2-propanol]
Relative Volatility [5, 12]: 2.9

Tripropylene glycol methyl ether
Relative Volatility [2, 8]: 3.2

CC(C)CCO [Isoamyl alcohol]
Relative Volatility [3, 9]: 3.0
Relative Volatility [1]: 1.6
Relative Volatility [4]: 3.6
Relative Volatility [2]: 2.2

CC(C)CC(=O)CC(C)C [Diisobutyl ketone]
Relative Volatility [5, 12]: 1.7
Relative Volatility [1]: 1.5
Relative Volatility [2]: 2.7

COCC(C)OC(C)=O (centres unmarked) [Propylene glycol methyl ether acetate]
Relative Volatility [1]: 1.8
Relative Volatility [2, 8]: 2.3

CCCCCCOC(C)=O [Hexyl acetate]
Relative Volatility [1]: 1.6
Relative Volatility [6]: 1.35

CCCCOC(C)=O [n-Butyl acetate]
Relative Volatility [5, 11]: 3.5

CCCCCCOCCO [Ethylene glycol hexyl ether]
Relative Volatility [1]: 2.9
Relative Volatility [2]: 3.1

CC(=O)CC(C)C [4-Methyl-2-pentanone]
Relative Volatility [5, 12]: 1.6
Relative Volatility [4]: 1.4

CCOCCC(=O)OCC [Ethyl 3-ethoxy propionate]
Relative Volatility [5, 12]: 1.6

CC(C)CC(C)O (centres unmarked) [4-Methyl-2-pentanol]
Relative Volatility [5, 12]: 2.1
Relative Volatility [1, 7]: 3.2
Relative Volatility [2, 8]: 4.2

CCCCC(CC)COC(C)=O (centres unmarked) [2-Ethyl hexyl acetate]
Relative Volatility [1]: 1.6
Relative Volatility [2, 8]: 2.0
Relative Volatility [6]: 1.3

CCCCCCCCCC(C)=O [2-Undecanone]
Relative Volatility [5, 12]: 1.4

CCOC(=O)CC(C)C [Ethyl isovalerate]
Relative Volatility [5, 12]: 1.4
Relative Volatility [1]: 1.6
Relative Volatility [2]: 2.7
Relative Volatility [6]: 1.6

CCCCCOC(C)=O [n-Amyl acetate]
Relative Volatility [5, 11]: 1.85

CCCCC(=O)OCC [Ethyl n-valerate]
Relative Volatility [5, 12]: 1.6
Relative Volatility [1]: 1.5
Relative Volatility [2]: 2.7
Relative Volatility [6]: 1.35

CCCC(=O)OCC [Ethyl butyrate]
Relative Volatility [5, 11]: 1.2
Relative Volatility [6]: 1.3

CC(C)CCO [3-Methyl-1-butanol]
Relative Volatility [5, 12]: 2.9

CC(C)COCC(C)O (centres unmarked) [Propylene glycol isobutyl ether]
Relative Volatility [3, 9]: 1.4
Relative Volatility [1, 7]: 2.4
Relative Volatility [2]: 2.5

CC(=O)CC(C)C [Methyl isobutyl ketone]
Relative Volatility [5, 12]: 1.85
Relative Volatility [4]: 1.5

O=C1OCCO1 [Ethylene carbonate]
Relative Volatility [5, 12]: 3.2
Relative Volatility [3, 9]: 1.3
Relative Volatility [1, 7]: 2.8
Relative Volatility [2, 8]: 3.3

CCC[N+](=O)[O-] [1-Nitropropane]
Relative Volatility [1]: 1.6
Relative Volatility [4]: 1.3
Relative Volatility [2, 8]: 2.1

O=C(OCc1ccccc1)c1ccccc1 [Benzyl benzoate]
Relative Volatility [4, 10]: 1.6

CC(=O)C(C)(C)C [3,3-Dimethyl-2-butanone]
Relative Volatility [5, 12]: 1.65
Relative Volatility [4]: 1.4

CC(=O)OC(C)CC(C)C (centres unmarked) [4-Methyl pentyl acetate-2]
Relative Volatility [5, 11]: 1.45
Relative Volatility [1, 7]: 1.7
Relative Volatility [2, 8]: 2.9

CC(C)COC(=O)C(C)C [Isobutyl isobutyrate]
Relative Volatility [5, 12]: 3.3
Relative Volatility [1]: 1.5
Relative Volatility [6]: 1.3

CC(C)CC(=O)CC(C)C [2,6-Dimethyl-4-heptanone]
Relative Volatility [5, 12]: 1.65

CCC(CC)CO [2-Ethyl butanol]
Relative Volatility [1, 7]: 3.3
Relative Volatility [2]: 1.4

CC(=O)OCCC(C)C [Isoamyl acetate]
Relative Volatility [5, 12]: 1.25

CC(=O)CCC(C)C [5-Methyl-2-hexanone]
Relative Volatility [4, 10]: 1.3

CCOCCOCCO [Diethylene glycol ethyl ether]
Relative Volatility [5, 12]: 1.2
Relative Volatility [3, 9]: 1.4
Relative Volatility [1, 7]: 2.8
Relative Volatility [2]: 2.9

OCC1CCCO1 (centres unmarked) [Tetrahydro furfuryl alcohol]
Relative Volatility [5, 12]: 2.3
Relative Volatility [1, 7]: 3.2
Relative Volatility [2, 8]: 3.3

CC1=CC(=O)CC(C)(C)C1 [Isophorone]
Relative Volatility [5, 12]: 1.55
Relative Volatility [3, 9]: 1.4
Relative Volatility [1, 7]: 2.0

CCCCCCO [Hexyl alcohol]
Relative Volatility ([3]; * Brings out t-Butanol as Overhead): 1.2
Relative Volatility [4]: 2.5

N#CCCCCC#N [Adiponitrile]
Relative Volatility [6]: 1.25

CC(=O)c1ccccc1 [Acetophenone]
Relative Volatility [5, 12]: 1.35
Relative Volatility [1]: 3.0
Relative Volatility [4]: 1.7
Relative Volatility [2, 8]: 2.3

COc1ccccc1 [Anisole]
Relative Volatility [5, 11]: 1.25

CC[N+](=O)[O-] [Nitroethane]
Relative Volatility [2]: 2.8
Relative Volatility [6]: 1.3

CN(C)C=O [Dimethylformamide]
Relative Volatility [1]: 2.8
Relative Volatility [4]: 2.8
Relative Volatility [2]: 2.8
Relative Volatility [6]: 1.55

CC(C)[N+](=O)[O-] [2-Nitropropane]
Relative Volatility [1]: 1.6
Relative Volatility [4]: 1.4
Relative Volatility [2, 8]: 2.0

CCCCCOC(C)=O [Amyl acetate]
Relative Volatility [1]: 1.5
Relative Volatility [2, 8]: 2.1
Relative Volatility [6]: 1.4

CC(=O)CC(C)=O [2,4-Pentanedione]
Relative Volatility [1]: 1.8
Relative Volatility [4]: 1.6
Relative Volatility [2]: 2.7

CC(C)CCCCCO [Isooctyl alcohol]
Relative Volatility [5, 12]: 2.1
Relative Volatility [1, 7]: 2.4
Relative Volatility [2]: 2.5

CC(=O)CCC(C)C [Methyl isoamyl ketone]
Relative Volatility [5, 12]: 2.0
Relative Volatility [1, 7]: 1.6
Relative Volatility [2, 8]: 2.3

1-Methoxy-2-acetoxy propanol
Relative Volatility [2, 8]: 2.3

CCCOC(C)=O [n-Propyl acetate]
Relative Volatility [5, 12]: 1.85

CN1CCCC1=O [1-Methyl-2-pyrrolidinone]
Relative Volatility [5, 12]: 2.5
Relative Volatility [1, 7]: 3.6
Relative Volatility [2]: 2.7

CCOCCOCCOC(C)=O [Diethylene glycol ethyl ether acetate]
Relative Volatility [1, 7]: 2.1
Relative Volatility [2, 8]: 2.8

CC(=O)Oc1ccccc1 [Phenyl acetate]
Relative Volatility [6]: 1.25

CC(=O)OCc1ccccc1 [Benzyl acetate]
Relative Volatility [5, 12]: 1.2
Relative Volatility [1, 7]: 1.7
Relative Volatility [2]: 2.5
Relative Volatility [6]: 1.55

CCOCCOC(C)=O [Ethylene glycol ethyl ether acetate]
Relative Volatility [5, 11]: 1.5
Relative Volatility [2]: 2.5

CC(=O)OC(C)C [Isopropyl acetate]
Relative Volatility [5, 12]: 1.6

COCC(C)OC(C)=O (centres unmarked) [1-Methoxy-2-propanol acetate]
Relative Volatility [1, 7]: 4.3
Relative Volatility [2]: 1.7
Relative Volatility [6]: 1.7

CCCCCCCO [Heptyl alcohol]
Relative Volatility [1]: 3.1
Relative Volatility [2]: 3.6

CCCCCCOC=O [n-Hexyl formate]
Relative Volatility [5, 12]: 1.4
Relative Volatility [1]: 1.5
Relative Volatility [2]: 1.7

CCCCCCC(C)=O [2-Octanone]
Relative Volatility [4]: 1.25

O=[N+]([O-])c1ccccc1 [Nitrobenzene]
Relative Volatility [1]: 1.6
Relative Volatility [4]: 1.4
Relative Volatility [2]: 2.5

CCOC(=O)c1ccccc1 [Ethyl benzoate]
Relative Volatility [5, 12]: 1.55

CCCCCCCCCCO [n-Decanol]
Relative Volatility [1, 7]: 2.3
Relative Volatility [2]: 2.5

CC(C)CCCCCCCO [Isodecyl alcohol]
Relative Volatility [1, 7]: 2.4
Relative Volatility [2, 8]: 2.3

Dipropylene glycol methyl ether
Relative Volatility [5, 12]: 1.85
Relative Volatility [2, 8]: 4.3

CCOC(=O)Cc1ccccc1 [Ethyl phenyl acetate]
Relative Volatility [5, 11]: 1.5

OCc1ccccc1 [Benzyl alcohol]
Relative Volatility [1, 7]: 3.5

CCCCOCCOC(C)=O [Ethylene glycol butyl ether acetate]
Relative Volatility [5, 12]: 1.2
Relative Volatility [1]: 1.8
Relative Volatility [2, 8]: 2.1
Relative Volatility [6]: 1.3

COC(=O)c1ccccc1 [Methyl benzoate]
Relative Volatility [4]: 1.25

CCOCCOCCOCC [Diethylene glycol diethyl ether]
Relative Volatility [5, 11]: 1.2
Relative Volatility [1]: 1.6
Relative Volatility [4]: 1.6
Relative Volatility [2]: 2.7

CC(=O)CC(C)(C)O [Diacetone alcohol]
Relative Volatility [5, 12]: 2.7

COCC(C)OC(C)=O (centres unmarked) [1-Methoxy-2-acetoxy propane]
Relative Volatility [1, 7]: 2.0
